Results taken from patent US20220062299A1, “USE OF GLUCOCORTICOID STEROIDS IN PREVENTING AND TREATING CONDITIONS OF MUSCLE WASTING, AGING AND METABOLIC DISORDER” (NORTHWESTERN UNIVERSITY, priority 2018, published 2022).

System: Klf15, Mef2C, Foxo3 loci in mdx muscle
Assay: H3K27ac ChIP-seq on myofibers integrated with RNA-seq of mdx muscle
Type: in vivo, mouse
Method: H3K27ac ChIP-seq on muscle myofibers. Freshly-isolated whole quadriceps muscles (both per mouse) were finely minced and digested in 10 ml/muscle of PBS supplemented with 1 mM CaCl2 and 100 U/ml collagenase II (Cat #17101, Life Technologies, Grand Island, N.Y.) at 37° C. for 1 hour with shaking. The suspension was then filtered through a 40 μm strainer (Cat #22363547, Fisher Scientific, Waltham, Mass.) and the unfiltered fraction (enriched in myofibers) was kept for further steps. Separation of mononuclear fraction in the filtered fraction was confirmed at the microscope. Myofibers were fixed in 10 ml 1% PFA for 30 minutes at room temperature with gentle nutation. Fixation was quenched 1 ml of 1.375M glycine (Cat #BP381-5, Fisher Scientific, Waltham, Mass.) with gentle nutation for 5 minutes at room temperature. After centrifugation at 3000 g for 5 minutes, myofibers were lysed in 1.4 ml lysis buffer with approximately 25 μl 2.3 mm zirconia/silica beads (Cat #11079125z, BioSpec, Bartlesville, Okla.). Lysis buffer consisted of 10 mM HEPES (pH 7.3; Cat #H3375), 10 mM KCl (Cat #P9541), 5 mM MgCl2 (Cat #M8266), 0.5 mM DTT (Cat #646563), 3 μg/ml cytochalasin B (C6762; all reagents from Sigma, St. Louis, Mo.); protease inhibitor cocktail (Cat #11852700, Roche, Mannheim, Germany)). Myofibers were them homogenized by means of Mini-BeadBeater-16 (Cat #607, Biospec, Bartlesville, Okla.) for 30 sec, then by rotating at 4° C. for 30 minutes. […] DNA was purified using the MinElute purification kit (cat #28004; Qiagen, Hilden, Germany), quantitated using Qubit reader and reagents. Library preparation and sequencing were conducted at the NU Genomics Core, using TrueSeq ChiP-seq library prep (with size exclusion) on 5 ng chromatin per ChIP sample or pooled input, and HiSeq 50 bp single-read sequencing (approximately 60 million read coverage per sample). […]

C[C@]12C=CC(=O)C=C1CC[C@@H]1[C@@H]2C(=O)C[C@@]2(C)[C@H]1CC[C@]2(O)C(=O)CO [prednisone, Prednisone]
Foxo3 and other muscle atrophy factors (daily prednisone): upregulation
levels of Klf15 and Mef2C (daily prednisone): reduced
H3K27ac marks and transcription of Klf15 and Mef2C (weekly prednisone): increased
